According to US20250228865A1, “COMPOUNDS FOR ENHANCING READ THROUGH OF GENES CONTAINING PREMATURE TERMINATION CODONS AND METHODS FOR MAKING AND USING THE SAME” (Sanofi US Services Inc., priority 2022, published 2025):

What was measured:
[1] = system: recombinant human CFTR carrying the premature stop codon (PTC) mutation G542X; assay: CFTR-PTC mutant translation readthrough, Nanoluc tagged CFTR luminescence (G542X cell line); type: cell-based; details: in combination with G418, G542X cell line; for CFTR G542X ACTIVITY Fold 10 μM G-418: fold over 10 μM G-418; for EC50: 16HBE cells
Outline: (§1)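 Readthrough is the 48 h compound-induced luminescence increase scaled to that of maximal G418 (125-250 μM). Compounds run from 50 μM final in 2-fold steps, ±10 μM G418, on 16HBE lines carrying Nanoluc-tagged CFTR G542X (extracellular loop 4 tag) or R1162X (C-terminal tag), with 3 μM VX-809 present.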

[2] = system: recombinant human CFTR carrying the premature stop codon (PTC) mutation R1162X; assay: CFTR-PTC mutant translation readthrough, Nanoluc tagged CFTR luminescence (R1162X cell line); type: cell-based; details: for CFTR R1162X ACTIVITY Fold 10 μM G-418: fold over 10 μM G-418, in combination with G418; for EC50: in combination with G418, 16HBE cells, read-out: CFTR R1162X ACTIVITY EC50
Outline: as §1

SMILES	EC50 [1]	EC50 [2]	CFTR G542X ACTIVITY Fold 10 μM G-418 [1]	CFTR R1162X ACTIVITY Fold 10 μM G-418 [2]
CC(O)C1CN(c2ccc(OCc3c(Cl)cccc3Cl)cc2)C(=O)O1 (stereo not drawn) [3-[4-[(2,6-dichlorophenyl)methoxy]phenyl]-5-(1-hydroxyethyl)oxazolidin-2-one]	1000 to 10000 nM	> 10000 nM	A′ (A′ = ≥10X)	B′ (B′ = ≥5X to <10X)
Cc1cccc(C(F)(F)F)c1COc1cnc(N2CC(=O)N(CO)C2=O)nc1	1000 to 10000 nM	1000 to 10000 nM	A′ (A′ = ≥10X)	A′ (A′ = ≥10X)
O=C1OC(CO)CN1c1ccc(OCc2c(Cl)cccc2OC(F)F)cc1 (stereo not drawn)	1000 to 10000 nM	> 10000 nM	C′ (C′ = <5X)	B′ (B′ = ≥5X to <10X)
OCc1nnc(-c2ccc(OCc3c(Cl)cccc3C(F)(F)F)cn2)o1	< 1000 nM	< 1000 nM	C′ (C′ = <5X)	C′ (C′ = <5X)
Cc1cccc(C(F)(F)F)c1COc1cnc(N2C(=O)NC(C)(C)C2=O)nc1	1000 to 10000 nM	1000 to 10000 nM	A′ (A′ = ≥10X)	A′ (A′ = ≥10X)
Cc1cccc(C(F)(F)F)c1COc1ccc(-n2cc(CO)nn2)cc1 [[1-[4-[[2-methyl-6-(trifluoromethyl)phenyl]methoxy]phenyl]triazol-4-yl]methanol]	1000 to 10000 nM	1000 to 10000 nM	A′ (A′ = ≥10X)	A′ (A′ = ≥10X)
Cc1cccc(C(F)(F)F)c1COc1cnc(N2CCN3C(=O)COCC3C2)nc1 (stereo not drawn)	< 1000 nM	< 1000 nM	A′ (A′ = ≥10X)	A′ (A′ = ≥10X)
CCc1cccc(C(F)(F)F)c1COc1cnc(-n2cnc(CO)c2)nc1	< 1000 nM	< 1000 nM	A′ (A′ = ≥10X)	A′ (A′ = ≥10X)
OCc1ccn(-c2ncc(OCc3c(Cl)cccc3OC(F)(F)F)cn2)n1	< 1000 nM	1000 to 10000 nM	A′ (A′ = ≥10X)	B′ (B′ = ≥5X to <10X)
O=C1OC(CO)CN1c1ccc(CCc2c(Cl)cccc2Cl)cn1 (stereo not drawn) [3-[5-[2-(2,6-dichlorophenyl)ethyl]-2-pyridyl]-5-(hydroxymethyl)oxazolidin-2-one]	1000 to 10000 nM	> 10000 nM	B′ (B′ = ≥5X to <10X)	A′ (A′ = ≥10X)
OCc1ncn(-c2ccc(OCc3c(Cl)cccc3OC(F)F)cc2)n1	1000 to 10000 nM	1000 to 10000 nM	A′ (A′ = ≥10X)	B′ (B′ = ≥5X to <10X)
O=C1OC(CO)CN1c1ccc(CCc2c(Cl)cccc2Cl)cc1 (stereo not drawn) [3-[4-[2-(2,6-dichlorophenyl)ethyl]phenyl]-5-(hydroxymethyl)oxazolidin-2-one]	1000 to 10000 nM	> 10000 nM	C′ (C′ = <5X)	B′ (B′ = ≥5X to <10X)
Cc1cccc(C(F)(F)F)c1COc1ccc(-n2cc(CO)nn2)nc1	< 1000 nM	< 1000 nM	A′ (A′ = ≥10X)	A′ (A′ = ≥10X)
OCc1cn(-c2ccc(OCc3cc(Cl)cc(Cl)c3)cc2)cn1 [[1-[4-[(3,5-dichlorophenyl)methoxy]phenyl]imidazol-4-yl]methanol]	1000 to 10000 nM	> 10000 nM	–	C′ (C′ = <5X)

Further lines, with some results ahead:

EC50 [1]	EC50 [2]	SMILES	CFTR G542X ACTIVITY Fold 10 μM G-418 [1]	CFTR R1162X ACTIVITY Fold 10 μM G-418 [2]
< 1000 nM	< 1000 nM	NCC1CCCN(c2ncc(OCc3c(Cl)cccc3Cl)cn2)C1 (stereo not drawn) [[1-[5-[(2,6-dichlorophenyl)methoxy]pyrimidin-2-yl]-3-piperidyl]methanamine]	A′ (A′ = ≥10X)	A′ (A′ = ≥10X)
1000 to 10000 nM	1000 to 10000 nM	O=C(CO)N1CCN(c2ncc(OCc3c(Cl)cccc3Cl)cn2)CC1	A′ (A′ = ≥10X)	A′ (A′ = ≥10X)
< 1000 nM	1000 to 10000 nM	Cc1cccc(C(F)(F)F)c1COc1cnc(N2CCC[C@@H](O)C2)nc1	A′ (A′ = ≥10X)	A′ (A′ = ≥10X)
1000 to 10000 nM	1000 to 10000 nM	O=C(NCC1CN(c2ncc(OCc3c(Cl)cccc3Cl)cn2)CCO1)C(F)(F)F (stereo not drawn)	A′ (A′ = ≥10X)	B′ (B′ = ≥5X to <10X)
< 1000 nM	< 1000 nM	Cc1cccc(C(F)(F)F)c1COc1cnc(N2CCC(O)C(C)(C)C2)nc1 (stereo not drawn)	A′ (A′ = ≥10X)	A′ (A′ = ≥10X)
1000 to 10000 nM	1000 to 10000 nM	O=C1CN(c2ncc(OCc3c(Cl)cccc3C(F)(F)F)cn2)C[C@H](CO)N1	A′ (A′ = ≥10X)	A′ (A′ = ≥10X)
1000 to 10000 nM	> 10000 nM	O=C(O)C1CN(c2ccc(OCc3c(Cl)cccc3C(F)(F)F)cn2)CCO1 (stereo not drawn)	C′ (C′ = <5X)	C′ (C′ = <5X)
1000 to 10000 nM	1000 to 10000 nM	CC(=O)N[C@H]1CCN(c2ncc(OCc3c(Cl)cccc3Cl)cn2)C1	A′ (A′ = ≥10X)	A′ (A′ = ≥10X)
1000 to 10000 nM	1000 to 10000 nM	CC(=O)N1CCN(c2ncc(OCc3c(Cl)cccc3Cl)cn2)CC1 [1-[4-[5-[(2,6-dichlorophenyl)methoxy]pyrimidin-2-yl]piperazin-1-yl]ethanone]	A′ (A′ = ≥10X)	A′ (A′ = ≥10X)
1000 to 10000 nM	1000 to 10000 nM	O=C(O)C1CCN(c2ncc(OCc3c(Cl)cccc3C(F)(F)F)cn2)CC1 [1-[5-[[2-chloro-6-(trifluoromethyl)phenyl]methoxy]pyrimidin-]	A;	A′ (A′ = ≥10X)
1000 to 10000 nM	1000 to 10000 nM	CS(=O)(=O)NCC1CN(c2ncc(OCc3c(Cl)cccc3Cl)cn2)CCO1 (stereo not drawn)	A′ (A′ = ≥10X)	B′ (B′ = ≥5X to <10X)
1000 to 10000 nM	1000 to 10000 nM	Cc1cccc(C(F)(F)F)c1COc1ccc(N2CCOC(CO)C2)nc1 (stereo not drawn)	A′ (A′ = ≥10X)	A′ (A′ = ≥10X)
1000 to 10000 nM	1000 to 10000 nM	NC(=O)C1CN(c2ncc(OCc3c(Cl)cccc3Cl)cn2)C1 [1-[5-[(2,6-dichlorophenyl)methoxy]pyrimidin-2-yl]azetidine-3-carboxamide]	B′ (B′ = ≥5X to <10X)	A′ (A′ = ≥10X)
< 1000 nM	1000 to 10000 nM	Cc1cccc(C(F)(F)F)c1COc1ccc(N2CCOC(CO)C2)cc1 (stereo not drawn)	A′ (A′ = ≥10X)	A′ (A′ = ≥10X)
< 1000 nM	< 1000 nM	OC[C@@H]1CN(c2ncc(OCc3c(Cl)cccc3Cl)cn2)CCO1 [[(2S)-4-[5-[(2,6-dichlorophenyl)methoxy]pyrimidin-2-yl]morpholin-2-yl]methanol]	A′ (A′ = ≥10X)	A′ (A′ = ≥10X)
< 1000 nM	1000 to 10000 nM	OCC1CN(c2ncc(OCc3c(Cl)cccc3Cl)cn2)CCO1 (stereo not drawn) [[4-[5-[(2,6-dichlorophenyl)methoxy]pyrimidin-2-yl]morpholin-2-yl]methanol]	A′ (A′ = ≥10X)	A′ (A′ = ≥10X)
1000 to 10000 nM	1000 to 10000 nM	Clc1cccc(Cl)c1COc1cnc(N2CCOCC2)nc1 [4-[5-[(2,6-dichlorophenyl)methoxy]pyrimidin-2-yl]morpholine]	A′ (A′ = ≥10X)	A′ (A′ = ≥10X)
